Test results from patent US8435978B2, “Substituted sulfonamide compounds” (Gruenenthal GmbH, priority 2006, dated 2013).

Columns and labels:
B1R receptor of the rat = molecular target: T1, B1R receptor of the rat (Rattus norvegicus, UniProt P97583); assay: Functional study on the bradykinin receptor 1 (B1R), FLIPR Ca2+ assay, rB1R cells; format: cell-based; settings: agonist Des-Arg9-bradykinin 100 nM, % inhibition compared with the maximum achievable inhibition; for inhibition at 10 µM: CHO-K1, test substance 10 μM, read-out: B1R Antagonism, rat [10 μM] % Inhibition; for B1R Antagonism, rat [10 μM] % Inhibition: test substance 10 μM, rB1R CHO K1 cells
T1 construct: host or cells: CHO K1 cells (Chinese hamster ovary), stably transfected
T1 sequence (P97583 1-337): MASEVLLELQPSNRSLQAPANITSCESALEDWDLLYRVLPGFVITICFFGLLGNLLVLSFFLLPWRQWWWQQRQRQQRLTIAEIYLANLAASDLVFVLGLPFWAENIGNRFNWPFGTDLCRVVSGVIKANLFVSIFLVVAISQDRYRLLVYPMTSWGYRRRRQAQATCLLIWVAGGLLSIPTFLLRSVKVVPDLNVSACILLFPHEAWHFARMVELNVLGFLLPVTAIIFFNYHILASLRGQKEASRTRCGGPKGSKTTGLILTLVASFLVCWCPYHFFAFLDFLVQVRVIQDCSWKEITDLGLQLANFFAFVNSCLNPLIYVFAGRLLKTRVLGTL
How it was run: (§1)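 Readout: peak Fluo-4 Ca2+ fluorescence, FLIPR. Stable CHO K1 hB1R or rB1R cells; cpd 10 μM, 10 min preincubation, then agonist (hB1R: Lys-Des-Arg9-BK 0.5 nM; rB1R: Des-Arg9-BK 100 nM). Value = % inhibition relative to maximal achievable inhibition.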

human B1R receptor = molecular target: T2, human B1R receptor (Homo sapiens, UniProt P46663); assay: Functional study on the bradykinin receptor 1 (B1R), FLIPR Ca2+ assay, hB1R cells; format: cell-based; settings: agonist Lys-Des-Arg9-bradykinin 0.5 nM, % inhibition compared with the maximum achievable inhibition; for inhibition at 10 µM: CHO-K1, test substance 10 μM, read-out: B1R Antagonism, human [10 μM] % Inhibition; for B1R Antagonism, human [10 μM] % Inhibition: test substance 10 μM, hB1R CHO K1 cells
T2 construct: host or cells: CHO K1 cells (Chinese hamster ovary), stably transfected
T2 sequence (P46663 1-353): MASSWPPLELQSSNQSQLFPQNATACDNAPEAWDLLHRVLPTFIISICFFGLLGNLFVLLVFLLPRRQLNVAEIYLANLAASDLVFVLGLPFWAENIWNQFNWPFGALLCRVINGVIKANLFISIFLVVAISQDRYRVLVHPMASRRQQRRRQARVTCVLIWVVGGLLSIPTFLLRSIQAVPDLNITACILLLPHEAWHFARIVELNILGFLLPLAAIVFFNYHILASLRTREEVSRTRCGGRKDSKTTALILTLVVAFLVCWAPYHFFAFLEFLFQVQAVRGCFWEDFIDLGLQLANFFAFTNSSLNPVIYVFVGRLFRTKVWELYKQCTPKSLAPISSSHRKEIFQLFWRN
How it was run: as §1

Row | SMILES | inhibition at 10 µM (B1R receptor of the rat) | inhibition at 10 µM (human B1R receptor) | B1R Antagonism, rat [10 μM] % Inhibition (B1R receptor of the rat) | B1R Antagonism, human [10 μM] % Inhibition (human B1R receptor)
1 | COc1cc(C)c(S(=O)(=O)N2CCCCC2COCC(=O)N2CCC(N3CCn4cccc4C3)CC2)c(C)c1 (stereo not drawn) [Example 211, 1-(4-(3,4-dihydropyrrolo[1,2-a]pyrazin-2(1H)-yl)piperidin-1-yl)-2-((1-(4-methoxy-2,6-dimethylphenylsulfonyl)piperidin-2-yl)methoxy)ethanone] | 100% | 106% | – | –
2 | COc1cc(C)c(S(=O)(=O)N2CCCCC2COCC(=O)N2CCN(CCC3CCN(C)CC3)CC2)c(C)c1 (stereo not drawn) [Example 212, 2-((1-(4-methoxy-2,6-dimethylphenylsulfonyl)piperidin-2-yl)methoxy)-1-(4-(2-(1-methylpiperidin-4-yl)ethyl)piperazin-1-yl)ethanone] | 100% | 107% | – | –
3 | CN(CCC1CCC(N(C)C)CC1)C(=O)COCC1CCc2ccccc2N1S(=O)(=O)c1ccc(Cl)c(Cl)c1 (stereo not drawn) [Example 213, 2-((1-(3,4-dichlorophenylsulfonyl)-1,2,3,4-tetrahydroquinolin-2-yl)methoxy)-N-(2-(4-(dimethylamino)cyclohexyl)ethyl)-N-methylacetamide] | 94.5% | 59.7% | – | –
4 | COc1cc(C)c(S(=O)(=O)N2CCCCC2COCC(=O)N2CCN(Cc3cnc(N(C)c4ccc(F)cc4)nc3)CC2)c(C)c1 (stereo not drawn) [Example 214, 1-(4-((2-((4-fluorophenyl)(methyl)amino)pyrimidin-5-yl)methyl)piperazin-1-yl)-2-((1-(4-methoxy-2,6-dimethylphenylsulfonyl)piperidin-2-yl)methoxy)ethanone] | 102% | 101% | – | –
5 | COc1cc(C)c(S(=O)(=O)N2CCCCC2COCC(=O)N2CCc3cc(N4CCN(C)CC4)ccc3C2)c(C)c1 (stereo not drawn) [Example 215, 2-((1-(4-methoxy-2,6-dimethylphenylsulfonyl)piperidin-2-yl)methoxy)-1-(6-(4-methylpiperazin-1-yl)-3,4-dihydroisoquinolin-2(1H)-yl)ethanone] | 101% | 99.9% | – | –
6 | CN(CCC1CCC(N2CCCC2)CC1)C(=O)COCC1CCc2ccccc2N1S(=O)(=O)c1ccc(Cl)c(Cl)c1 (stereo not drawn) [Example 216, 2-((1-(3,4-dichlorophenylsulfonyl)-1,2,3,4-tetrahydroquinolin-2-yl)methoxy)-N-methyl-N-(2-(4-(pyrrolidin-1-yl)cyclohexyl)ethyl)acetamide] | 4.48% | -10.1% | – | –
7 | COc1ccc(S(=O)(=O)N2CCCCC2COCC(=O)N2CCN(Cc3cccc(C)c3)CC2)cc1 (stereo not drawn) [Example 219, 2-((1-(4-methoxyphenylsulfonyl)piperidin-2-yl)methoxy)-1-(4-(3-methylbenzyl)piperazin-1-yl)ethanone] | 96.2% | 5.04% | – | –
8 | COc1ccc(S(=O)(=O)N2CCCCC2COCC(=O)N2CCN(c3nc(CCc4ccccc4)cs3)CC2)cc1 (stereo not drawn) [Example 220, 2-((1-(4-methoxyphenylsulfonyl)piperidin-2-yl)methoxy)-1-(4-(4-phenethylthiazol-2-yl)piperazin-1-yl)ethanone] | 86.3% | 15.3% | – | –
9 | COc1ccc(S(=O)(=O)N2CCCCC2CCOCC(=O)N2CCN(CCN3CCCCC3)CC2)cc1 (stereo not drawn) [Example 221, 2-(2-(1-(4-methoxyphenylsulfonyl)piperidin-2-yl)ethoxy)-1-(4-(2-(piperidin-1-yl)ethyl)piperazin-1-yl)ethanone] | 89.6% | 38% | – | –
10 | Cc1cc(C)c(S(=O)(=O)N2CCCCC2COCC(=O)N2CCC(c3nc4cc(C)ccc4[nH]3)CC2)c(C)c1 (stereo not drawn) [Example 222, 2-((1-(mesitylsulfonyl)piperidin-2-yl)methoxy)-1-(4-(5-methyl-1H-benzo[d]imidazol-2-yl)piperidin-1-yl)ethanone] | 114% | 7.55% | – | –
11 | Cc1cc(C)nc(CC2CCCCN2C(=O)COCC2Cc3ccccc3CN2S(=O)(=O)c2c(C)cc(C)cc2C)c1 (stereo not drawn) [Example 223, 1-(2-((4,6-dimethylpyridin-2-yl)methyl)piperidin-1-yl)-2-((2-(mesitylsulfonyl)-1,2,3,4-tetrahydroisoquinolin-3-yl)methoxy)ethanone] | 86.4% | 26.2% | – | –
12 | O=C(COCC1CCCCN1S(=O)(=O)c1cccc(C(F)(F)F)c1)N1CCCCC1c1cncc(Br)c1 (stereo not drawn) [Example 224, 1-(2-(5-bromopyridin-3-yl)piperidin-1-yl)-2-((1-(3-(trifluoromethyl)phenylsulfonyl)piperidin-2-yl)methoxy)ethanone] | 52.8% | 72.1% | – | –
13 | Cc1cc(C)c(S(=O)(=O)N2CCCCC2COCC(=O)N2CCC(N3CCCCC3)CC2)c(C)c1 (stereo not drawn) [Example 225, 1-(1,4′-bipiperidin-1′-yl)-2-((1-(mesitylsulfonyl)piperidin-2-yl)methoxy)ethanone] | 84.1% | 104% | – | –
14 | Cc1cc(C)c(S(=O)(=O)N2CCCCC2COCC(=O)N2CCCC2Cc2ccccn2)c(C)c1 (stereo not drawn) [Example 226, 2-((1-(mesitylsulfonyl)piperidin-2-yl)methoxy)-1-(2-(pyridin-2-ylmethyl)pyrrolidin-1-yl)ethanone] | 96.9% | 76.4% | – | –
15 | COc1ccc(C2CCCCN2C(=O)COCC2CCCCN2S(=O)(=O)c2c(C)cc(C)cc2C)cn1 (stereo not drawn) [Example 227, 2-((1-(mesitylsulfonyl)piperidin-2-yl)methoxy)-1-(2-(6-methoxypyridin-3-yl)piperidin-1-yl)ethanone] | 94.5% | 26.9% | – | –
16 | CCc1ccc(CC2CCCCN2C(=O)COCC2CCCCN2S(=O)(=O)c2c(C)cc(C)cc2C)nc1 (stereo not drawn) [Example 228, 1-(2-((5-ethylpyridin-2-yl)methyl)piperidin-1-yl)-2-((1-(mesitylsulfonyl)piperidin-2-yl)methoxy)ethanone] | 99.8% | 88.6% | – | –
17 | Cc1cc(C)c(S(=O)(=O)N2CCCCC2COCC(=O)N2CCCCC2Cc2ncccc2C)c(C)c1 (stereo not drawn) [Example 229, 2-((1-(mesitylsulfonyl)piperidin-2-yl)methoxy)-1-(2-((3-methylpyridin-2-yl)methyl)piperidin-1-yl)ethanone] | 101% | 101% | – | –
18 | CN1CCN(C2CCN(C(=O)COCC3CCCCN3S(=O)(=O)c3cccc4ccccc34)CC2)CC1 (stereo not drawn) [Example 230, 1-(4-(4-methylpiperazin-1-yl)piperidin-1-yl)-2-((1-(naphthen-1-ylsulfonyl)piperidin-2-yl)methoxy)ethanone] | – | – | 62.33% | 95.42%
19 | Cc1cc(C)c(S(=O)(=O)N2CCCCC2COCC(=O)N2CCC(N3CCN(C)CC3)CC2)c(C)c1 (stereo not drawn) [Example 231, 2-((1-(mesitylsulfonyl)piperidin-2-yl)methoxy)-1-(4-(4-methylpiperazin-1-yl)piperidin-1-yl)ethanone] | 83.3% | 102% | – | –
20 | Cc1cc(C)c(S(=O)(=O)N2CCCCC2COCC(=O)N2CCN(CC3CCN(C)CC3)CC2)c(C)c1 (stereo not drawn) [Example 232, 2-((1-(mesitylsulfonyl)piperidin-2-yl)methoxy)-1-(4-((1-methylpiperidin-4-yl)methyl)piperazin-1-yl)ethanone] | 90% | 102% | – | –
21 | CN1CCN(C2CCN(C(=O)COCC3Cc4ccccc4CN3S(=O)(=O)c3ccc(Cl)cc3Cl)CC2)CC1 (stereo not drawn) [Example 233, 2-((2-(2,4-dichlorophenylsulfonyl)-1,2,3,4-tetrahydroisoquinolin-3-yl)methoxy)-1-(4-(4-methylpiperazin-1-yl)piperidin-1-yl)ethanone] | 86.7% | 102% | – | –
22 | Cc1cc(C)c(S(=O)(=O)N2CCCCC2COCC(=O)N2CCN(c3nc(Cc4ccccc4)cs3)CC2)c(C)c1 (stereo not drawn) [Example 234, 1-(4-(4-benzylthiazol-2-yl)piperazin-1-yl)-2-((1-(mesitylsulfonyl)piperidin-2-yl)methoxy)ethanone] | 103% | 52% | – | –
23 | O=C(COCC1CCCCN1S(=O)(=O)c1cccc2ccccc12)N1CCC(N2CCCCC2)CC1 (stereo not drawn) [Example 235] | – | – | 83.46% | 102.3%
24 | COc1cc(C)c(S(=O)(=O)N2CCCCC2COCC(=O)N2CCC(c3ccccn3)C2)c(C)c1 (stereo not drawn) [Example 236, 2-((1-(4-methoxy-2,6-dimethylphenylsulfonyl)piperidin-2-yl)methoxy)-1-(3-(pyridin-2-yl)pyrrolidin-1-yl)ethanone] | 99.6% | 95.9% | – | –
